Assay in all cases: NCI-60 cell line screen, 48 h
The test system of test [1] is T-47D breast.
Test [2] deals with SR leukemia.
The subject of test [3] is HS 578T breast.
Test [4] concerns ACHN renal.
The test system of test [5] is SF-539 CNS.
Test [6] concerns M14 melanoma.
Test [7] has as its system HCT-15 colon.
Test [8] has as its system OVCAR-8 ovarian.
Test [9] has as its system LOX IMVI melanoma.
Test [10] deals with NCI-H522 lung.
For test [11], the system named is MOLT-4 leukemia.
Test [12] relates to PC-3 prostate.
The subject of test [13] is MCF7 breast.
The subject of test [14] is HOP-62 NSCLC.
Test [15] concerns SW-620 colon.

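1) Cells in 96-well plates. 2) Compound, 48 h, 5 concentrations. 3) Linear interpolation between surrounding doses. 4) Unreached endpoint = highest concentration. Definition used: TGI = concentration required for complete inhibition of growth.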

In the case of `S=C1Cc2c(-c3ccccc3)cc(-c3cccc(Cl)c3)nc2-c2ccccc2N1`, the TGI was 21.6 µM in [1]; 46.9 µM in test [2]; 6.12 µM in test [3]; 3.89 µM in [4]; 8.54 µM in test [5]; greater than 49.7 µM in [6]. The TGI was 33.4 µM in test [7]; 4.39 µM in test [8]; 13.7 µM in test [9]; 13.1 µM in test [10]; greater than 90.2 µM in test [11]; greater than 96.1 µM in test [12]. Moreover, the TGI in test [13] is greater than 58.1 µM; in test [14], 6.48 µM; in [15], 15.4 µM.

Turning to `COC(=O)c1cc2c(cc1Cl)Sc1nnc(Nc3ccccc3)n1S2(=O)=O`, the TGI in test [1] is 3.72 µM; in test [2], 5.36 µM; in [3], 11.4 µM; in test [4], 4.16 µM; in [5], 6.07 µM; in test [6], 17.5 µM. Further, the TGI is 6.05 µM in [7]; greater than 33.1 µM in test [8]; 93.6 µM in test [9]; 3.26 µM in [10]; 6.34 µM in test [11]; 10 µM in test [12]. Moreover, the TGI in test [13] was determined as 8.94 µM; in [14], 5.52 µM; in [15], 11.1 µM.

Turning to `C[C@H]1CC[C@@]2(OC1)O[C@H]1C[C@H]3[C@@H]4CC[C@@H]5C[C@@H](OC6OC(CO)C(O)C(O)C6OC6OC(CO)C(O)C(O)C6O)CC[C@]5(C)[C@H]4CC[C@]3(C)[C@H]1[C@@H]2C` (stereo not given in full), the TGI in test [1] stood at 3.85 µM; in test [2], 4.3 µM; in test [3], 4.47 µM; in test [4] it was 3.82 µM; in [5], 3.72 µM; in test [6], 3.75 µM. Besides, the TGI came out at 3.67 µM in [7]; 4.26 µM in [8]; 3.75 µM in test [9]; 4.75 µM in test [10]; 3.79 µM in test [11]; 3.84 µM in test [12]. Moreover, the values for the TGI in [13], in [14] and in test [15] were 3.8 µM, 3.99 µM and 3.4 µM, respectively.

`CCCCCCCCCCCCCCCCCCNc1ccn(C2OC(COP(=O)(O)OCC3OC(n4ccc(N)nc4=O)C(O)C3O)C(O)C2O)c(=O)n1` (stereo not given): the TGI in [1], in [2], in test [3], in [4], in [5] and in test [6] was greater than 100 µM each time. Moreover, the TGI in [7] was greater than 100 µM; in test [8], greater than 62.2 µM; in test [9] it was 49.4 µM; in test [10], greater than 100 µM; in [11], greater than 70.6 µM; in test [12], greater than 100 µM. Further, the TGI in [13], in test [14] and in test [15] was greater than 100 µM in each case.

For `CN(NC1=NCCO1)c1ccc2ccccc2c1`, the TGI was greater than 100 µM in test [1]; greater than 100 µM in test [2]; greater than 100 µM in test [3]; greater than 100 µM in test [4]; 82.6 µM in [5]; greater than 100 µM in test [6]. Besides, the TGI in test [7], in test [8], in [9], in test [10], in test [11] and in test [12] was greater than 100 µM throughout. The TGI in [13], in test [14] and in test [15] was greater than 100 µM in each case.

Values taken from PubChem BioAssay (NCI).
